In ChEMBL document CHEMBL1158026, “New jaspamide derivatives from the marine sponge Jaspis splendans collected in Vanuatu” (J Nat Prod, 1999):
In brackets after ≈: the same amount, converted by molar mass.

Experiment: Cytotoxicity against human NSCLC-N6 cells by MTT assay
Format: functional, cell-based

Row | SMILES | IC50 [mg/L]
1 | C=C1C[C@H](C)C(=O)N[C@@H](C)C(=O)N(C)[C@H](Cc2c(Br)[nH]c3ccccc23)C(=O)N[C@@H](c2ccc(O)cc2)CC(=O)O[C@@H](C)C[C@@H](C)C1O (stereo partly drawn) [JASPAMIDE C] | 1.1 (≈ 1.52 µM)
2 | C=C1C[C@H](C)C(=O)N[C@@H](C)C(=O)N(C)[C@H](Cc2c(Br)[nH]c3ccccc23)C(=O)N[C@@H](c2ccc(O)cc2)CC(=O)O[C@@H](C)C[C@@H](C)C1=O [JASPLAKINOLIDE B] | 3.3 (≈ 4.56 µM)
3 | C/C1=C\[C@H](C)C[C@H](C)OC(=O)C[C@H](c2ccc(O)cc2)NC(=O)[C@@H](Cc2c(Br)[nH]c3ccccc23)N(C)C(=O)[C@H](C)NC(=O)[C@@H](C)C1 [JASPAMIDE] | 0.36 (≈ 0.507 µM)
